Data as given in patent US20170158636A1, “FUNCTIONALISED AND SUBSTITUTED CARBAZOLES AS ANTI-CANCER AGENTS” (Novogen Ltd., priority 2014, published 2017).

Assays:
Assay type in all cases: cell-based
[1] = tested on: IL-23; test: Cytokine release from PMA/ionomycin-stimulated PBMCs (HTRF); conditions: PBMC, human PBMCs, PMA and ionomycin
Protocol: (§1) The ability of compounds 1004, 1007 and 1018 to inhibit the release of cytokines TNF-α, IFN-γ, IL-6, IL-21, IL-17A and IL-23 was evaluated in vitro (Tables 2 and 3). Briefly, human peripheral blood mononuclear cells (PBMCs) were isolated from human peripheral blood by Histopaque density gradient centrifugation. The freshly isolated PBMCs were seeded at 50,000 cells/well in a 96-well half area plate. PBMCs were dosed with the test compounds (at 10 μM, 1 μM and 0.1 μM) and then incubated at 37° C. and 5% CO2 for 2 hours. To stimulate release of the cytokines IFN-γ, IL-21, IL-17A and IL-23, the PBMCs were treated with 50 ng/mL of phorbol 12-myristate 13-acetate (PMA) and 1 μg/mL of ionomycin and to stimulate the release of TNF-α and IL-6, PBMCs were treated with 100 ng/mL of lipopolysaccharide (LPS) from gram-negative bacteria. The PBMCs were then incubated at 37° C. and 5% CO2 for a further 6 hours and the cell supernatant was collected and a Homogenous Time Resolved Fluorescence (HTRF) assay was carried out following the manufacturer's instructions. Cytokine release from the PBMCs was captured using a Perkin Elmer ENVISION 2104 microplate reader set at 615 nm and 665 nm respectively.

[2] = tested on: IL-21; test: as above; conditions: PBMC, human PBMCs, PMA and ionomycin
Protocol: as §1

[3] = tested on: IFN-γ; test: as above; conditions: PBMC, human PBMCs, PMA and ionomycin
Protocol: as §1

[4] = tested on: IL-17A; test: as above; conditions: PBMC, human PBMCs, PMA and ionomycin
Protocol: as §1

[5] = tested on: TNF-α; test: Cytokine release from LPS-stimulated PBMCs (HTRF); conditions: PBMC, human PBMCs
Protocol: as §1

[6] = tested on: IL-6; test: Cytokine release from LPS-stimulated PBMCs (HTRF); conditions: PBMC, human PBMCs
Protocol: as §1

Compound: CCN(CC)CCCn1c2ccccc2c2cc(C(=O)N3CCN(CCc4ccc(F)cc4)CC3)ccc21 [Compound 1007, (9-(3-(diethylamino)propyl)-9H-carbazol-3-yl)(4-(4-fluorophenethyl)piperazin-1-yl)methanone]
- inhibition at 0.1 µM ([1]; 0.1 μM): -15%
- inhibition at 1 µM ([1]; 1 μM): -11%
- inhibition at 10 µM ([1]; 10 μM): -3%
- inhibition at 0.1 µM ([2]; 0.1 μM): -7%
- inhibition at 1 µM ([2]; 1 μM): -9%
- inhibition at 10 µM ([2]; 10 μM): -4%
- inhibition at 0.1 µM ([3]; 0.1 μM): 8%
- inhibition at 1 µM ([3]; 1 μM): 53%
- inhibition at 10 µM ([3]; 10 μM): 90%
- inhibition at 0.1 µM ([4]; 0.1 μM): -4%
- inhibition at 1 µM ([4]; 1 μM): 22%
- inhibition at 10 µM ([4]; 10 μM): 59%
- inhibition at 0.1 µM ([5]; 0.1 μM): 43%
- inhibition at 1 µM ([5]; 1 μM): 60%
- inhibition at 10 µM ([5]; 10 μM): 82%
- inhibition at 0.1 µM ([6]; 0.1 μM): 38%
- inhibition at 1 µM ([6]; 1 μM): 59%
- inhibition at 10 µM ([6]; 10 μM): 89%
